pKi: −log10 of the molar value.
How the values were obtained:
[1] = molecular target: T1, rat mGlu2 receptor (Rattus norvegicus, UniProt P31421); assay: [3H]-LY354740 binding on mGlu2 transfected CHO cell membranes; settings: displacement of 10 nM [3H]-LY354740, membranes of CHO cells transfected with rat mGlu2, room temperature, 1 hour
T1 construct: expressed in transfected cells; host or cells: CHO cells, stably transfected (G-418 selection); membranes were prepared from them
Description: [^3H]-LY354740 Binding on mGlu2 Transfected CHO Cell Membranes. Transfection and Cell Culture
cDNA encoding the rat mGlu2 receptor protein in pBluescript II was subcloned into the eukaryotic expression vector pcDNA I-amp from Invitrogen Ltd (Paisley, UK). This vector construct (pcD1mGR^2) was co-transfected with a psvNeo plasmid encoding the gene for neomycin resistance, into CHO cells by a modified calcium phosphate method described by Chen & Okayama (1988). The cells were maintained in Dulbecco's Modified Eagle medium with reduced L-glutamine (2 mM final concentration) and 10% dialysed foetal calf serum from Gibco-Invitrogen (Carlsbad, Calif., USA). Selection was made in the presence of G-418 (1000 ug/ml final) and […]. Clones were identified by reverse transcription of 5 μg total RNA, followed by PCR using mGlu2 receptor specific primers 5′-[…]-3′ and 540 -[…]-3′ in 60 mM Tris HCl (pH 10), 15 mM (NH4)2SO4, 2 mM MgCl2, 25 units/ml Taq Polymerase with 30 cycles annealing at 60° C. for 1 min., extention at 72° C. for 30 s, and 1 min. 95° C. denaturation.
Cells, cultured as above, were harvested and washed three times with cold PBS and frozen at −80° C. The pellet was resuspended in cold 20 mM HEPES-NaOH buffer containing 10 mM EDTA (pH 7.4), and homogenised with a polytron (Kinematica, AG, Littau, Switzerland) for 10 s at 10 000 rpm. After centrifugation for 30 min. at 4° C., the pellet was washed once with the same buffer, and once with cold 20 mM HEPES-NaOH buffer containing 0.1 mM EDTA, (pH 7.4). Protein content was measured using the micro BCA method from Pierce-Perbio (Rockford, Ill., USA) using bovine serum albumin as standard.
After thawing, the membranes were resuspended in cold 50 mM Tris-HCl buffer containing 2 mM MgCl2 (pH 7) (binding buffer). The final concentration of the membranes in the assays was 25 μg protein/ml. Inhibition experiments were performed with membranes incubated with 10 nM [^3H]-LY354740 at room temperature, for 1 hour, in presence of various concentrations of the compound to be tested. Following the incubations, membranes were filtered onto Whatmann GF/B glass fiber filters and washed 5 times with cold binding buffer. Non specific binding was measured in the presence of 10 μM DCG IV. After transfer of the filters into plastic vials containing 10 ml of Ultima-gold scintillation fluid from Perkin-Elmer (Boston, Mass., USA), the radioactivity was measured by liquid scintillation in a Tri-Carb 2500 TR counter (Packard, Zürich, Switzerland).
The inhibition curves were fitted with a four parameter logistic equation giving IC50 values, and Hill coefficients.

T1 sequence (P31421 19-872): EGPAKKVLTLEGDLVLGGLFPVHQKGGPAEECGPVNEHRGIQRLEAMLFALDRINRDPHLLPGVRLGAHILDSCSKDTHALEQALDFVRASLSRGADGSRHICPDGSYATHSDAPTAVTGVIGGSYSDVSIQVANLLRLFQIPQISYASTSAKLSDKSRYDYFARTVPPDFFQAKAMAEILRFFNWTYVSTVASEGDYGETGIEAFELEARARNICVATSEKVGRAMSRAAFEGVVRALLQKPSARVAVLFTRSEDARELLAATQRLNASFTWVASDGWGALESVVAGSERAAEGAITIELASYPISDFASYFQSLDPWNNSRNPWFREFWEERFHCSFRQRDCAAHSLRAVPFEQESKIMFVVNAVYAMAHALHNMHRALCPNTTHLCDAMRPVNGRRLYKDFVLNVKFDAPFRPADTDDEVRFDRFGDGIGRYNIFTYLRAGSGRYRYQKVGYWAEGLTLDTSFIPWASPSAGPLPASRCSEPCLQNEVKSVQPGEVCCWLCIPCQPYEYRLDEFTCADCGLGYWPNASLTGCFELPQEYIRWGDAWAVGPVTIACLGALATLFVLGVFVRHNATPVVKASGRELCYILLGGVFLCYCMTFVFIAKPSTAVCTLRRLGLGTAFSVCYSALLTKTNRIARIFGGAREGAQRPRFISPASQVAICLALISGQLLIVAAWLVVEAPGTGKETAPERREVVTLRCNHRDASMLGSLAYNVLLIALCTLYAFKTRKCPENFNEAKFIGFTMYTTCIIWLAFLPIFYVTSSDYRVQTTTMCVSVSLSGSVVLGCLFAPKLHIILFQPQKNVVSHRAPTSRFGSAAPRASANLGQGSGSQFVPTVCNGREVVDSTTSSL

Structure (SMILES)	melting point [°C]	pKi [1]
C=CCn1c(-c2c(Cl)cccc2Cl)nc(-c2ccncc2)c1-c1ccc(C)cc1 [Example 19, 4-[1-Allyl-2-(2,6-dichloro-phenyl)-5-(4-methyl-phenyl)-1H-imidazol-4-yl]-pyridine]	147 to 149	7.47
CCn1c(C(O)(C2CC2)C2CC2)nc(-c2ccncc2)c1-c1ccc(Cl)cc1 [Example 43, [5-(4-Chloro-phenyl)-1-ethyl-4-pyridin-4-yl-1H-imidazol-2-yl]-dicyclopropyl-methanol]	185 to 188	6.95
Cc1cc(C)c(-c2nc(-c3ccncc3)c(-c3ccc(Cl)cc3)n2CCO)c(C)c1 [Example 26, 2-[5-(4-Chloro-phenyl)-4-pyridin-4-yl-2-(2,4,6-trimethyl-phenyl)-imidazol-1-yl]-ethanol]	–	7.20
CCn1c(C(O)(C2CCCCC2)C2CCCCC2)nc(-c2ccncc2)c1-c1ccc(Cl)cc1 [Example 47, [5-(4-Chloro-phenyl)-1-ethyl-4-pyridin-4-yl-1H-imidazol-2-yl]-dicyclohexyl-methanol]	221 to 224	7.74
CCn1c(-c2c(Cl)cccc2Cl)nc(-c2ccncc2)c1-c1ccc(C)cc1 [Example 11, 4-[2-(2,6-Dichloro-phenyl)-1-ethyl-5-(4-methyl-phenyl)-1H-imidazol-4-yl]-pyridine]	191 to 193	7.89
CCn1c(-c2cc3ccccc3[nH]2)nc(-c2ccncc2)c1-c1ccc(Cl)cc1 [Example 33, 2-[5-(4-Chloro-phenyl)-1-ethyl-4-pyridin-4-yl-1H-imidazol-2-yl]-1H-indole]	279 to 280	–
CCCn1c(-c2c(C)cc(C)cc2C)nc(-c2ccncc2)c1-c1ccc(C)cc1 [Example 51, 4-[1-Propyl-5-(4-methyl-phenyl)-2-(2,4,6-trimethyl-phenyl)-1H-imidazol-4-yl]-pyridine]	134 to 136	–
CCCC(CCC)c1nc(-c2ccncc2)c(-c2ccc(Cl)cc2)n1CC [Example 37, 4-[5-(4-Chloro-phenyl)-1-ethyl-2-(1-propyl-butyl)-1H-imidazol-4-yl]-pyridine]	152 to 155	7.31
C=CCn1c(-c2c(C)cc(C)cc2C)nc(-c2ccncc2)c1-c1ccc(C(F)(F)F)cc1 [Example 20, 4-[1-Allyl-5-(4-trifluoromethyl-phenyl)-2-(2,4,6-trimethyl-phenyl)-1H-imidazol-4-yl]-pyridine]	209 to 210	–
CCn1c(-c2c(Cl)cccc2Cl)nc(-c2ccnc(Cl)c2)c1-c1ccc(Cl)cc1 [Example 54, 2-Chloro-4-[5-(4-chloro-phenyl)-2-(2,6-dichloro-phenyl)-1-ethyl-1H-imidazol-4-yl]-pyridine]	187 to 189	–
CCn1c(-c2c(OC)cc(OC)cc2OC)nc(-c2ccncc2)c1-c1ccc(Cl)cc1 [Example 18, 4-[5-(4-Chloro-phenyl)-1-ethyl-2-(2,4,6-trimethoxy-phenyl)-1H-imidazol-4-yl]-pyridine]	255 to 256	–
CCn1c(-c2c(C)cc(C)cc2C)nc(-c2ccncc2)c1-c1ccc(Cl)cc1Cl [Example 6, 4-[1-Ethyl-5-(2,4-dichloro-phenyl)-2-(2,4,6-trimethyl-phenyl)-1H-imidazol-4-yl]-pyridine]	191 to 193	–
CCn1c(-c2ccccc2Cl)nc(-c2ccncc2)c1-c1ccc(Cl)cc1 [Example 15, 4-[5-(4-Chloro-phenyl)-2-(2-chloro-phenyl)-1-ethyl-1H-imidazol-4-yl]-pyridine]	144 to 147	–
CCn1c(-c2c(C)cccc2Cl)nc(-c2ccncc2)c1-c1ccc(Cl)cc1 [Example 17, 4-[2-(2-Chloro-6-methyl-phenyl)-5-(4-chloro-phenyl)-1-ethyl-1H-imidazol-4-yl]-pyridine]	188 to 190	–
Clc1ccc(-c2c(-c3ccncc3)nc(-c3c(Cl)cccc3Cl)n2C2CC2)cc1 [Example 27, 4-[5-(4-Chloro-phenyl)-1-cyclopropyl-2-(2,6-dichloro-phenyl)-1H-imidazol-4-yl]-pyridine]	210 to 211	7.68
Cn1c(-c2c(Cl)cccc2Cl)nc(-c2ccncc2)c1-c1ccc(Cl)cc1 [Example 3, 4-[5-(4-Chloro-phenyl)-2-(2,6-dichloro-phenyl)-1-methyl-1H-imidazol-4-yl]-pyridine]	257 to 260	8.15
CCn1c(-c2c(C)cc(C)cc2C)nc(-c2ccncc2)c1-c1ccc(F)cc1 [Example 10, 4-[1-Ethyl-5-(4-fluoro-phenyl)-2-(2,4,6-trimethyl-phenyl)-1H-imidazol-4-yl]-pyridine]	194 to 196	–
CCn1c(C(OCCO)(c2cccc(C(F)(F)F)c2)c2cccc(C(F)(F)F)c2)nc(-c2ccncc2)c1-c1ccc(Cl)cc1 [Example 52, 2-[[5-(4-Chloro-phenyl)-1-ethyl-4-pyridin-4-yl-1H-imidazol-2-yl]-bis-(3-trifluoromethyl-phenyl)-methoxy]-ethanol]	222 to 223	–
CCn1c(-c2c(C)cc(C)cc2C)nc(-c2ccncc2)c1-c1ccc(C(C)(C)C)cc1 [Example 7, 4-[5-(4-tert-Butyl-phenyl)-1-ethyl-2-(2,4,6-trimethyl-phenyl)-1H-imidazol-4-yl]-pyridine]	202 to 205	–
CCn1c(-c2ccccc2C)nc(-c2ccncc2)c1-c1ccc(Cl)cc1 [Example 8, 4-[5-(4-Chloro-phenyl)-1-ethyl-2-(2-methyl-phenyl)-1H-imidazol-4-yl]-pyridine]	173 to 175	–
C=CCn1c(-c2c(Cl)cccc2Cl)nc(-c2ccncc2)c1-c1ccc(Cl)cc1 [Example 22, 4-[1-Allyl-5-(4-chloro-phenyl)-2-(2,6-dichloro-phenyl)-1H-imidazol-4-yl]-pyridine]	163 to 165	–

— patent US20060173048A1, “Imidazole derivatives” (priority 2005, published 2006)
